Measurements reported in US11155539B2, “4-pyridinylmethyl-morpholine derivatives and the use thereof as medicament” (Boehringer Ingelheim International GmbH, priority 2018, dated 2021).

Legend:
[1] = target: T1, NMDA NR1/NR2B receptor (Homo sapiens, UniProt Q13224); assay: In vitro NMDA NR1/NR2B cell assay (FLIPR, intracellular calcium induced by glycine/glutamate); type: cell-based; details: see Table 2
T1 construct: host or cells: HEK293, tetracycline-inducible expression
Protocol: A human HEK293 cell line with tetracyclin-inducible expression of NMDA NR1/NR2B receptor was used as a test system for compound efficacy and potency. The cell line was purchased from ChanTest, Catalog #CT6121. Compound activity was determined by measuring the effect of compounds on intracellular calcium concentration induced by glycine/glutamate agonism in a FLIPRtetra system (Molecular Devices).
The cells were obtained as frozen cells in cryo-vials and stored until use at −150° C. Cells were grown in culture medium (DMEM/F12, 10% FBS, 5 μg/mL Blasticidin, 150 μg/mL Zeozin, 500 μg/mL Geneticin). […] For sub-culturing the cells were detached from flasks by Versene. For the assay, cells were detached, washed twice with induction medium (DMEM/F12 without glutamine, 10% FBS, 2 μg/mL Tetracycline, 2 mM Ketamine) and seeded to 384 well pure coat amine plates (Becton Dickinson, 50000 cells per well in 50 μl) 48 h prior to assay in induction medium.
The test compounds were dissolved in 100% DMSO at a concentration of 10 mM and in a first step diluted in DMSO to a concentration of 5 mM, followed by serial dilution steps in 100% DMSO. Dilution factor and number of dilution steps may vary according to needs. Typically 8 different concentrations by 1:5 dilutions were prepared in duplicate, further intermediate dilutions (1:37.5) of the substances were carried out with aqueous assay buffer (137 mM NaCl, 4 mM KCl, 1.8 mM CaCl2, 10 mM HEPES, 10 mM Glucose, pH 7.4) resulting in a compound concentration 3 times above the final test concentration and DMSO at 2.7% resulting in 0.9% final DMSO concentration in the assay.
At the assay day cells were washed 3× with assay buffer (as described above), 10 μL buffer remained in the wells after washing. 10 μL Ca kit loading buffer (AAT Bioquest; prepared from the kit containing the following components: Component A: Fluo-8 NW dissolved in 200 μL DMSO and 20 μl of this solution are mixed with 10 ml buffer prepared out of component B and C, Component B: 10× Pluronic® F127 Plus diluted 1:10 in component C, Component C: HHBS (Hanks with 20 mM Hepes) was added to the cells and the plates were incubated with lid for 60 minutes at room temperature. 20 μl assay buffer containing 60 μM glycine (20 μM final) and 3 μM glutamate (1 μM final) was added to column 1-23, column 24 got assay buffer without glycine/glutamate to serve as negative unstimulated control. Fluorescence (indicating the calcium influx as a result of the NR1/NR2B ion channel activation) was read on the FLIPRtetra device for 60 seconds to monitor the glutamate induced effects. After 2 minutes 20 μL of compound dilution prepared as described above or controls (row 1-22) in assay buffer were carefully added to the wells. […] The average of 2 measurements at 5 minutes and […] 10 seconds after compound addition is calculated and further used for IC50 calculations. Each assay microtiter compound dilution plate contained wells (in column 23 or 24) with DMSO controls instead of compound as controls for glycine/glutamate induced fluorescence (high controls) and wells with 1 μM of a reference NR2B NAM as low controls (Compound 22; reference: Layton, Mark E et al, ACS Chemical Neuroscience 2011, 2(7), 352-362).
The output file of the reader contains the well number and measured average fluorescence units. For data evaluation and calculation, the measurement of the low control was set as 0% control and the measurement of the high control was set as 100% control. The IC50 values were calculated using the standard 4 parameter logistic regression formula. Calculation: [y=(a−d)/(1+(x/c)^b)+d], a=low value, d=high value; x=conc M; c=IC50 M; b=slope.

[2] = target: T2, Nav1.6 (Homo sapiens, UniProt Q9UQD0); details: reported in WO2015/130905; cited from earlier work
[3] = target: T2, Nav1.6; assay: Nav 1.6 inhibition, IonWorks Quattro electrophysiology; type: cell-based
Protocol: Determination of Nav 1.6.Inhibition
IonWorks Quattro electrophysiological platform
The compounds were prepared in DMSO at 300× the final assay concentrations of 1 and 5 μM.
The 300×DMSO stock solutions were transferred into assay plates where 2 μl per well of each 300× stock solution were placed. All assay plates were stored at −80° C. until the day of assay.
On the day of the assay, the appropriate assay plate was thawed at room temperature, centrifuged, and 198 μl of external recording solution was added and mixed thoroughly. This provided a 1:100 dilution. A further 1:3 dilution occurred upon addition to the cells in the IonWorks Quattro electrophysiological platform, giving a 1:300 dilution in total. On each assay plate, at least 8 wells were reserved for vehicle control (0.3% DMSO) and at least 8 wells for each positive control specific to the cell line tested. The positive controls were tested at a maximal blocking and an approximate IC50 concentration. As positive control Lidocaine at concentrations of 30 and 1000 μM was used.
The solutions for recording Nav1.6 currents were as follows:
Amphotericin B was used to obtain electrical access to the cell interior at a final concentration of 200 μg/ml in internal recording solution.
State-dependent inhibition: Sodium channels when held at depolarized potential or long test pulse, the channels open and inactivate and then stay inactivated until the membrane potential is stepped back to hyperpolarized potentials, when the inactivated channels recover from inactivation into closed state.
Cells were held at −120 mV. In order to completely inactivate the sodium channels (pulse 1), the cells were pulsed to +0 mV for 2500 ms and stepped back to −120 mV for 10 ms (to completely recover from inactivation, however channels that had drugs bound to them will not recover from inactivation) before stepping to +0 mV for 20 ms (pulse 2).
Both the positive and vehicle control data associated with each cell line assayed are shown below as an example. The mean is shown for each positive and negative control as solid symbol with the total number of individual well replicates given next to the solid symbol. In addition, the individual data of each well are shown on the graph as open symbols so that the variation about the mean value can be readily assessed.
Shown below are the assay controls for the Nav1.6 IonWorks Quattro assay.
Tables 3 and 4 show the normalized percentage inhibition of Nav1.6 channel. […] (see also the figure Assay Control Results above).

T2 sequence (Q9UQD0 whole entry): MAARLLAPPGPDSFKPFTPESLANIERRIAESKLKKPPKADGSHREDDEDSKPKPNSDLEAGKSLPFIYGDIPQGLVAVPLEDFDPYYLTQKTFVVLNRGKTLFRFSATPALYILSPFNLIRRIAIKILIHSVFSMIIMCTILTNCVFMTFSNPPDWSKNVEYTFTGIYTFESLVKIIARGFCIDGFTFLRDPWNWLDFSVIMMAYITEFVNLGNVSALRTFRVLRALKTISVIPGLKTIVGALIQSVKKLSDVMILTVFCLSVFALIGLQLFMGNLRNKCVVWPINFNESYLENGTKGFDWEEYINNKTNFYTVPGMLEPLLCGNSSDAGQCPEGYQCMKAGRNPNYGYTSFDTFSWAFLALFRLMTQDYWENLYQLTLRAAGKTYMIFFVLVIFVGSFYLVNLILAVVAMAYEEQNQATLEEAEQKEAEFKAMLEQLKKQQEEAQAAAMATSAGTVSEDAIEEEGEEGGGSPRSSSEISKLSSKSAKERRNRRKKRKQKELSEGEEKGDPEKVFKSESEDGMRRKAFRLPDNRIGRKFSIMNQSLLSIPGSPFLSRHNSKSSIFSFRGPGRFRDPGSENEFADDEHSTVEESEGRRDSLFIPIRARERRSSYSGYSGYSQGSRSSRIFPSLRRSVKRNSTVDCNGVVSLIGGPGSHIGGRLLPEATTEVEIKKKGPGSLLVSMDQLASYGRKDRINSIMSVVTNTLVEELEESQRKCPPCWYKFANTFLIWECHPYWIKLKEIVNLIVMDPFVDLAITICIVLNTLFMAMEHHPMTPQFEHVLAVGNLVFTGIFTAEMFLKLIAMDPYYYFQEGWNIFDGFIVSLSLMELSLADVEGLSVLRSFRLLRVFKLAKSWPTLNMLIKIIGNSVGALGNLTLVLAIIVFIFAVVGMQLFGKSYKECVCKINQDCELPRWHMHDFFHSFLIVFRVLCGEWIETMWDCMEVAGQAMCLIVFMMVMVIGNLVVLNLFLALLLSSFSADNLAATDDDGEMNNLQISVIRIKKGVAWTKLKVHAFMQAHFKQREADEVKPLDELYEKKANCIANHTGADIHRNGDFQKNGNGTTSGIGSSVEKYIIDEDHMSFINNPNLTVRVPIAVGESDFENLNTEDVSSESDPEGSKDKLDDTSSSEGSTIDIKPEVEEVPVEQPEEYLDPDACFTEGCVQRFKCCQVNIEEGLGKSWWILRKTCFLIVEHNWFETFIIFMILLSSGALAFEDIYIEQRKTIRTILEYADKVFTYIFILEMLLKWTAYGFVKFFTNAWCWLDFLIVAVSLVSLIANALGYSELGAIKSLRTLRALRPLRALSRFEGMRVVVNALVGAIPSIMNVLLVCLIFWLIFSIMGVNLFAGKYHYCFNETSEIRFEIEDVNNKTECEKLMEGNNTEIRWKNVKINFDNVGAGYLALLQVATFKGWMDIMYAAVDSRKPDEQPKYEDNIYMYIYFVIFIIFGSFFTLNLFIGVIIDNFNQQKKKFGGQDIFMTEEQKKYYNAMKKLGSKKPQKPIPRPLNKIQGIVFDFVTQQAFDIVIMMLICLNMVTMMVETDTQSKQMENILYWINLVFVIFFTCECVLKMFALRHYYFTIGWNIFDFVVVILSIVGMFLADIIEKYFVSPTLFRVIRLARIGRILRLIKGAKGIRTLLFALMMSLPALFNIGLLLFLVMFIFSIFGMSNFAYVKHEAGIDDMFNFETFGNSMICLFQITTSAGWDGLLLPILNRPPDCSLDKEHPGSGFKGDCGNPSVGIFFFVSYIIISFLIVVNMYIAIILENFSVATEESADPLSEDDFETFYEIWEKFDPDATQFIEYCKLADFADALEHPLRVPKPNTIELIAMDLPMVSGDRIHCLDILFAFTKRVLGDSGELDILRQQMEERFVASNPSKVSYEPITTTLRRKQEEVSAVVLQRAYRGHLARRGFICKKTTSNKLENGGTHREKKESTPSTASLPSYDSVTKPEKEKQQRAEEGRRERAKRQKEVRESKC
T1 sequence (Q13224 27-1484, other chains not shown): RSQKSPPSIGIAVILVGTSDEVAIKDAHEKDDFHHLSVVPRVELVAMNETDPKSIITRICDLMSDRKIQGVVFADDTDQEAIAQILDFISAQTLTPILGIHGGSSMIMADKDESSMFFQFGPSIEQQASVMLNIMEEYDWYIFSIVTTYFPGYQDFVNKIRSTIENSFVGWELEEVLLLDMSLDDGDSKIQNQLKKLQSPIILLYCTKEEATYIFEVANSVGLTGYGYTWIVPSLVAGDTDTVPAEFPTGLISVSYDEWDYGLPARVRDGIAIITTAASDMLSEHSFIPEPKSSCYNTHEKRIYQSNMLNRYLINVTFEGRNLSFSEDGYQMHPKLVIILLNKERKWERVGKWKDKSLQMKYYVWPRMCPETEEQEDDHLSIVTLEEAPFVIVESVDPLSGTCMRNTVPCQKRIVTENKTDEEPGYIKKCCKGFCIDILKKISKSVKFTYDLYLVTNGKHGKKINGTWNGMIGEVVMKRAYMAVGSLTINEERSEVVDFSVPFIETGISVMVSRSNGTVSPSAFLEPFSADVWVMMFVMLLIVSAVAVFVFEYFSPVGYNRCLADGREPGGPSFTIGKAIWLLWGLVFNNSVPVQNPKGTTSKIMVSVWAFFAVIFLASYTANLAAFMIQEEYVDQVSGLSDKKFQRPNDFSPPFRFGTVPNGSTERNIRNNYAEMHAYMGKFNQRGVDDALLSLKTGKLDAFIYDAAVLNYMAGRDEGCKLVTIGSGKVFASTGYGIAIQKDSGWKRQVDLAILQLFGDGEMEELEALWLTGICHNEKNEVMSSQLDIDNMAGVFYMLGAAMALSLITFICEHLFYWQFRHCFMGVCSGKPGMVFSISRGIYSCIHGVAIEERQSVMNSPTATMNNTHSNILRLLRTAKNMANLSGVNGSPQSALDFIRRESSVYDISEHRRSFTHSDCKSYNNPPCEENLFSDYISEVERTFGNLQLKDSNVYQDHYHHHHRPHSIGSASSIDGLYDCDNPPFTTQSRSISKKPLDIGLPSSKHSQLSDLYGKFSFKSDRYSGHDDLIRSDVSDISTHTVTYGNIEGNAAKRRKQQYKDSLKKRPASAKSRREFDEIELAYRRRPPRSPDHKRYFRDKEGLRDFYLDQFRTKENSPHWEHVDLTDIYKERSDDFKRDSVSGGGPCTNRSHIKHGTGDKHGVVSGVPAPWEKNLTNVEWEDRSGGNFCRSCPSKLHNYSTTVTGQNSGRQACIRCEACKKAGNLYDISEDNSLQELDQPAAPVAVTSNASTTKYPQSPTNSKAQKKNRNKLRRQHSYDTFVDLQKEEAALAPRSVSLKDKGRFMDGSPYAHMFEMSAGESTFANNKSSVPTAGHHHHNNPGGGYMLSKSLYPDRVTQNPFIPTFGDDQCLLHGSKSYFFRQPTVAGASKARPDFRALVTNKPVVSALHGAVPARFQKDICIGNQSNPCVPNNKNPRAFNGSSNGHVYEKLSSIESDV

SMILES: O=C(C1CN(Cc2cccc(Oc3ccccc3)c2)CCO1)N1CCOCC1 (stereo not shown) [Example 106 of WO2015/130905, reference compound]
- activity on the NR1-NR2B ion channel (in words) [1]: do not show any activity
- Nav 1.6 blockage [2]: > 5 µM
- significant inhibition of the Nav 1.6 channel (in words) ([3]; at 5 μM): not showing any significant inhibition
- significant inhibition of the Nav 1.6 channel (in words) ([3]; at 1 and 5 μM): do not show any significant inhibition
